One test deals with H358 cells. In words: H358 cell proliferation inhibition (CellTiter-Glo luminescent cell viability assay). The class given is cell-based. The note with it: Homo sapiens, NCI-H358, 168 h, 7 days. The method, then: The effect of the compounds of the present invention on H358 cell proliferation was assessed by CellTiter-Glo luminescent cell viability assay kit method.
H358 cells (ATCC, CRL-5807) were cultured in RPMI1640 (Hyclone, SH30256.01) complete medium containing 10% FBS (Gibco, 10100147) and 100 U/mL penicillin-streptomycin mixed solution (Gibco, 15140163). When the cells grew to 80-90%, the cells were digested, pipetted, and seeded in a 96-well plate (Corning, 4515) at 3000 cells/well (180 µL RPMI1640 complete medium), and then the 96-well plate was incubated overnight in an incubator at 37 °C with 5% CO2.
After incubation overnight, 20 µL of a diluted test compound was added to each well using a multi-channel pipette, and the 96-well plate was placed in an incubator at 37 °C with 5% CO2 for further culture. After 7 days, 100 µL of the supernatant was pipetted and discarded. 50 µL of CellTiter-Glo® 3D Cell Viability Assay liquid was added to each well. The plate was shaken at room temperature at 450 rpm for 30 min. After the cells were completely lysed, "Luminescence" on the microplate reader was selected for plate reading. In this experiment, the cell-free group (replaced with 1640 medium) was used as the 100% inhibition group, and the compound-free group in which the cell was added was used as the 0% inhibition group.
The inhibition percentage of H358 cell proliferation by the compounds of the present invention could be calculated by the following formula: [formula]
IC50 values of the compounds were calculated from 8 concentration points using XLfit (ID Business Solutions Ltd., UK) software by the following formula: Y = Bottom + (Top−Bottom)/(1+10^(∧)((logIC50−X)×slopefactor)) [formula]
Y is the inhibition percentage, X is the logarithmic value of the concentration of the test compound, Bottom is the minimum inhibition percentage, Top is the maximum inhibition percentage, and slope factor is the slope coefficient of the curve.
(In ATP-based viability assays light output follows the ATP content of the culture.)

The subject of test [1] is p-ERK pathway in H358 cells. As to the kind of experiment: p-ERK pathway inhibition in H358 cells (Advanced phospho-ERK (Thr202/Tyr204) cellular kit, HTRF). The class given is cell-based. The following applies: Homo sapiens, NCI-H358, 1 h compound incubation. Summed up: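 Serum-starved H358 cells (50000/well, overnight) treated with compound for 1 h at 37 °C, then lysed; phospho-ERK (Thr202/Tyr204) read by HTRF (665/620 nm ratio). Cell-free wells set 100% inhibition, untreated cells 0%; IC50 fitted from 8 concentrations by four-parameter curve.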
(TR-FRET usually uses a lanthanide donor and a delayed reading to cut background.)

Our source for the IC50 values is EP4417607A1, “HETEROCYCLIC COMPOUND AS SOS1 INHIBITOR AND USES THEREOF” (Nanjing Zaiming Pharmaceutical Co., Ltd., priority 2021, dated 2023).

As for `Cc1nc(N[C@H](C)c2cccc(C(F)F)c2F)c2cn(C3(CF)CC3)c(=O)c(N3CCN(C4COC4)CC3)c2n1` [Example 95, (R)-4-((1-(3-(difluoromethyl)-2-fluorophenyl)ethyl)amino)-6-(1-(fluoromethyl)cydopropyt)-2-methyt-8-(4-(oxetan-3-yt)piperazin-l-yt)pyrido[4,3-d]pyrimidine-7(6H)-one], the IC50 with H358 cells stood at 10.2 nM; in test [1], 30.8 nM.

For the molecule `Cc1nc(N[C@H](C)c2cccc(C(F)F)c2F)c2cn(C3(CF)CC3)c(=O)c(NC3COC3)c2n1` [Example 61, (R)-4-((1-(3-(difluoromethyl)-2-fluorophenyl)ethyl)amino)-6-(1-(fluoromethyl)cyclopropyl)-2-methyl-8-(oxetan-3-ylamino)pyrido[4,3-d]pyrimidine-7(6H)-one], the IC50 with H358 cells amounted to 22.8 nM; in test [1], 16.4 nM.

For the molecule `Cc1nc(N[C@H](C)c2cccc(C#N)c2C)c2cn(C3(CF)CC3)c(=O)c(N3CCOCC3)c2n1` [Example 47], the IC50 stood at 23.7 nM with H358 cells and 37.5 nM in test [1].

`Cc1nc(N[C@H](C)c2cccc(C(F)F)c2F)c2cn(C3(CF)CC3)c(=O)c(OC(F)F)c2n1` [Example 119, (R)-8-(difluoromethoxy)-4-((1-(3-(difluoromethyl)-2-fluorophenyl)ethyl)amino)-6-(1-(fluoromethyl)cyclopropyl)-2-methylpyrido[4,3-d]pyrimidine-7(6H)-one]: the figures for the IC50 (in the test on H358 cells; in test [1]) were 72.1 nM and 54.6 nM, respectively.

As for `Cc1nc(N[C@H](C)c2cccc(S(F)(F)(F)(F)F)c2)c2cn(C3(CF)CC3)c(=O)c(N3CCOCC3)c2n1` [Example 46, (R)-6-(1-(fluoromethyl)cyclopropyl)-2-methyl-8-morpholino-4-((1-(3-(pentafluoro-λ^6-sulfanyl)phenyl)ethyl)amino)pyrido[4,3-d]pyrimidine-7(6H)-one], the results for the half-maximal inhibitory concentration (IC50) (in the test with H358 cells; in test [1]) were 74.8 nM and 112 nM, respectively.

For `Cc1nc(N[C@H](C)c2cccc(C(F)F)c2F)c2cn(C3(CF)CC3)c(=O)c(N3CCOC[C@@H]3CO)c2n1` [Example 135, 4-(((R)-1-(3-(difluoromethyl)-2-fluorophenyl)ethyl)amino)-6-(1-(fluoromethyl)cyclopropyl)-8-((S)-3-(hydroxymethyl)morpholinyl)-2-methylpyrido[4,3-d]pyrimidine-7(6H)-one], the IC50 in the test with H358 cells came out at 65.2 nM; in test [1], 59 nM.

Consider `CC(=O)Nc1c(=O)n(C2(CF)CC2)cc2c(N[C@H](C)c3cccc(C(F)F)c3F)nc(C)nc12` [Example 83, (R)-N-(4-((1-(3-(difluoromethyl)-2-fluorophenyl)ethyl)amino)-6-(1-(fluoromethyl)cyclopropyl)-2-methyl-7-oxo-6,7-dihydropyrido[4,3-d]pyrimidine-8-yl)acetamide], for which the IC50 in the test with H358 cells is 90.9 nM; in test [1], 92 nM.

As to `Cc1nc(N[C@H](C)c2cccc(C(F)F)c2F)c2cn(C3(CF)CC3)c(=O)c(OCc3ccccn3)c2n1` [Example 122, (R)-4-((1-(3-(difluoromethyl)-2-fluorophenyl)ethyl)amino)-6-(1-(fluoromethyl)cyclopropyl)-2-methyl-8-(pyridin-2-ylmethoxy)pyrido[4,3-d]pyrimidine-7(6H)-one], the results for the IC50 (in the test with H358 cells; in test [1]) were 102 nM and 111 nM, respectively.

For the molecule `Cc1nc(N[C@H](C)c2cccc(C(F)F)c2F)c2cn(C3(CF)CC3)c(=O)c(C3(O)CCN(C4COC4)CC3)c2n1` [Example 145, (R)-4-((1-(3-(difluoromethyl)-2-fluorophenyl)ethyl)amino)-6-(1-(fluoromethyl)cyclopropyl)-8-(4-hydroxy-1-(oxetan-3-yl)piperidin-4-yl)-2-methylpyrido[4,3-d]pyrimidine-7(6H)-one], the 50% inhibitory concentration (IC50) with H358 cells came to 64.6 nM; in test [1] it was 138 nM.

`Cc1nc(N[C@H](C)c2cccc(C(F)F)c2F)c2cn(C3(CF)CC3)c(=O)c(N3CCOC[C@@H]3C(C)C)c2n1` [Example 57, 4-(((R)-1-(3-(difluoromethyl)-2-fluorophenyl)ethyl)amino)-6-(1-(fluoromethyl)cyclopropyl)-8-((S)-3-isopropylmorpholino)-2-methylpyrido[4,3-d]pyrimidine-7(6H)-one]: the IC50 in the test on H358 cells was 73.1 nM; in test [1] it was 67.5 nM.

In the case of `Cc1nc(N[C@H](C)c2cccc(C(F)F)c2F)c2cn(C3(CF)CC3)c(=O)c(N3CCC(N(C)C)CC3)c2n1` [Example 158], the IC50 in the test with H358 cells was 12.5 nM; in test [1], 145 nM.

Take `Cc1nc(N[C@H](C)c2cccc(C(F)F)c2F)c2cn(C3(CF)CC3)c(=O)c(N3CCO[C@H](C)C3)c2n1` [Example 42, 4-(((R)-1-(3-(difluoromethyl)-2-fluorophenyl)ethyl)amino)-6-(1-(fluoromethyl)cyclopropyl)-2-methyl-8-((R)-2-methylmorpholine)pyrido[4,3-d]pyrimidine-7(6H)-one]: the IC50 in the test on H358 cells came to 50.5 nM; in test [1] it was 41.8 nM.

As to `Cc1nc(N[C@H](C)c2cccc(C#N)c2C)c2cn(N3CCOCC3)c(=O)c(N3CCOCC3)c2n1` [Example 108, (R)-2-methyl-3-(1-((2-methyl-6,8-dimorpholine-7-oxo-6,7-dihydropyrido[4,3-d]pyrimidin-4-yl)amino)ethyl)benzonitrile], the values for the IC50 (with H358 cells; in test [1]) were 76.4 nM and 61.3 nM, respectively.

In the case of `Cc1nc(N[C@H](C)c2cccc(C#N)c2C)c2cn(N3CCOCC3)c(=O)c(N3CCN(C)CC3)c2n1` [Example 76, (R)-2-methyl-3-(1-((2-methyl-8-(4-methylpiperazin-1-yl)-6-morpholine-7-oxo-6,7-dihydropyrido[4,3-d]pyrimidin-4-yl)amino)ethyl)benzonitrile], the values for the half-inhibitory concentration (IC50) (in the test with H358 cells; in test [1]) were 108 nM and 113 nM, respectively.

Turning to `COC1(c2c(=O)n(C3(CF)CC3)cc3c(N[C@H](C)c4cccc(C(F)F)c4F)nc(C)nc23)COC1` [Example 150, (R)-4-((1-(3-(difluoromethyl)-2-fluorophenyl)ethyl)amino)-6-(1-(fluoromethyl)cyclopropyl)-8-(3-methoxyoxetan-3-yl)-2-methylpyrido[4,3-d]pyrimidine-7(6H)-one], the figures for the IC50 (with H358 cells; in test [1]) were 68.7 nM and 42.8 nM, respectively.

Turning to `Cc1nc(N[C@H](C)c2cccc(C(C)(F)F)c2F)c2cn(C3(CF)CC3)c(=O)c(N3CCOC[C@@H]3C)c2n1` [Example 114, 4-(((R)-1-(3-(1,1-difluoroethyl)-2-fluorophenyl)ethyl)amino)-6-(1-(fluoromethyl)cyclopropyl)-2-methyl-8-((S)-3-methylmorpholine)pyrido[4,3-d]pyrimidine-7(6H)-one], the IC50 in the test with H358 cells is 24.6 nM; in test [1], 54.8 nM.

Consider `COc1c(=O)n(C2(CF)CC2)cc2c(N[C@H](C)c3cccc(C(C)(F)F)c3F)nc(C)nc12` [Example 11, (R)-4-((1-(3-(1,1-difluoroethyl)-2-fluorophenyl)ethyl)amino)-6-(1-(fluoromethyl)cyclopropyl)-8-methoxy-2-methylpyrido[4,3-d]pyrimidine-7(6H)-one], for which the IC50 was found to be 50.8 nM in the test with H358 cells and 88.2 nM in test [1].

On to `[2H]C([2H])([2H])[C@@H](Nc1nc(C)nc2c(N3CCOCC3)c(=O)n(C3(CF)CC3)cc12)c1cccc(C(F)F)c1F` [Example 90], for which the IC50 with H358 cells turned out to be 35.4 nM; in test [1], 16.7 nM.

On to `[2H]C([2H])([2H])[C@@H](Nc1nc(C)nc2c(N3CCOC[C@@H]3C)c(=O)n(C3(CF)CC3)cc12)c1cccc(C(F)F)c1F` [Example 113, 4-(((R)-1-(3-(difluoromethyl)-2-fluorophenyl)ethyl-2,2,2-d3)amino)-6-(1-(fluoromethyl)cyclopropyl)-2-methyl-8-((S)-3-methylmorpholine)pyrido[4,3-d]pyrimidine-7(6H)-one], for which the IC50 was 15.6 nM in the test on H358 cells and 70 nM in test [1].

`Cc1nc(N[C@H](C)c2cccc(C(F)F)c2F)c2cn(C3(CF)CC3)c(=O)c(N3CC4CC(C3)N4C3COC3)c2n1` [Example 152, 4-(((R)-1-(3-(difluoromethyl)-2-fluorophenyl)ethyl)amino)-6-(1-(fluoromethyl)cyclopropyl)-2-methyl-8-(6-(oxetan-3-yl)-3,6-diazabicyclo[3.1.1]heptan-3-yl)pyrido[4,3-d]pyrimidine-7(6H)-one]: the IC50 with H358 cells came to 13.6 nM; in test [1], 76.3 nM.

For the molecule `[2H][C@](C)(Nc1nc(C)nc2c(N3CCS(=O)(=O)CC3)c(=O)n(C3(CF)CC3)cc12)c1cccc(C(F)F)c1F` [Example 124, (R)-4-((1-(3-(difluoromethyl)-2-fluorophenyl)ethyl-1-d)amino)-8-(1,1-dioxidothiomorpholinyl)-6-(1-(fluoromethyl)cyclopropyl)-2-methylpyrido[4,3-d]pyrimidine-7(6H)-one], the IC50 was determined as 41.9 nM in the test with H358 cells and 62.3 nM in test [1].

What is called IC50 is the concentration at which inhibition is half-maximal.
